Source: US10597388B2, “Pyridazinone herbicides” (FMC CORPORATION, priority 2014, dated 2020)

Columns and labels:
Experiment in all cases: Test D controlled growth environment herbicide test, pre- and postemergence
Type in all cases: in vivo
[1] = system: Russian thistle (Salsola kali)
How it was run: (§1)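 Rating is visual, 0–100 scale (100 = complete control), made against untreated plants 14–21 d after treatment in controlled growth conditions. Postemergence sprays went onto 1- to 4-leaf plants in peat medium; preemergence sprays onto silt loam after sowing; formulation included a surfactant.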

[2] = system: bluegrass (annual bluegrass, Poa annua)
How it was run: as §1

[3] = system: buckwheat, wild (wild buckwheat, Polygonum convolvulus)
How it was run: as §1

[4] = system: canarygrass (Phalaris minor)
How it was run: as §1

[5] = system: field violet (Viola arvensis)
How it was run: as §1

[6] = system: galium (catchweed bedstraw, Galium aparine)
How it was run: as §1

kochia (Kochia scoparia) = system: kochia (Kochia scoparia)
How it was run: as §1

[7] = system: mustard, wild (wild mustard, Sinapis arvensis)
How it was run: as §1

[8] = system: oilseed rape (Brassica napus)
How it was run: as §1

[9] = system: pigweed (Amaranthus retroflexus)
How it was run: as §1

[10] = system: radish, wild (wild radish, Raphanus raphanistrum)
How it was run: as §1

[11] = system: speedwell (bird's-eye speedwell, Veronica persica)
How it was run: as §1

[12] = system: windgrass (Apera spica-venti)
How it was run: as §1

[13] = Postemergence, 31 g ai/ha, scale 0 to 100 (0 no effect, 100 complete control)
[14] = Postemergence, 125 g ai/ha, visual rating on scale 0 (no effect) to 100 (complete control), 14 to 21 d
[15] = Postemergence, 250 g ai/ha, scale 0 to 100 (0 no effect, 100 complete control)
[16] = Preemergence, 62 g ai/ha, scale 0 to 100 (0 no effect, 100 complete control)
[17] = Preemergence, 125 g ai/ha, scale 0 to 100 (0 no effect, 100 complete control)
[18] = Preemergence, 250 g ai/ha, scale 0 to 100 (0 no effect, 100 complete control)
[19] = postemergence, 62 g ai/ha, scale 0 to 100, 0 no effect, 100 complete control

COc1nn(C)c(=O)c(-c2c(C)ccc3ccccc23)c1OC(=O)OC(C)C [Compound 36]
Russian Thistle plant response rating [1, 13]: 80
Plant response rating, Russian Thistle [1, 14]: 85
Plant response rating, Russian Thistle [1, 15]: 90
Plant response rating (scale of 0 to 100), Russian Thistle ([1]; Preemergence, 31 g ai/ha): 0
Plant response rating, Russian Thistle [1, 16]: 15
Plant response rating, Russian Thistle [1, 17]: 10
Plant response rating, Russian Thistle [1, 18]: 15
Plant response rating, Russian Thistle [1, 19]: 85
Bluegrass plant response rating [2, 13]: 10
Plant response rating, Bluegrass [2, 14]: 40
Plant response rating, Bluegrass [2, 15]: 35
Plant response rating (scale of 0 to 100), Bluegrass ([2]; Preemergence, 31 g ai/ha): 0
Plant response rating, Bluegrass [2, 16]: 15
Plant response rating, Bluegrass [2, 17]: 10
Bluegrass plant response rating [2, 18]: 15
Plant response rating, Bluegrass [2, 19]: 15
Buckwheat, Wild plant response rating [3, 13]: 100
Plant response rating, Buckwheat, Wild [3, 14]: 100
Plant response rating, Buckwheat, Wild [3, 15]: 100
Plant response rating (scale of 0 to 100), Buckwheat, Wild ([3]; Preemergence, 31 g ai/ha): 0
Plant response rating, Buckwheat, Wild [3, 16]: 0
Plant response rating, Buckwheat, Wild [3, 17]: 10
Plant response rating, Buckwheat, Wild [3, 18]: 10
Plant response rating, Buckwheat, Wild [3, 19]: 100
Canarygrass plant response rating [4, 13]: 15
Plant response rating, Canarygrass [4, 14]: 55
Plant response rating, Canarygrass [4, 15]: 80
Plant response rating (scale of 0 to 100), Canarygrass ([4]; Preemergence, 31 g ai/ha): 0
Plant response rating, Canarygrass [4, 16]: 45
Plant response rating, Canarygrass [4, 17]: 40
Plant response rating, Canarygrass [4, 18]: 65
Plant response rating, Canarygrass [4, 19]: 40
Field Violet plant response rating [5, 13]: 70
Plant response rating, Field Violet [5, 14]: 90
Plant response rating, Field Violet [5, 15]: 90
Plant response rating (scale of 0 to 100), Field Violet ([5]; Preemergence, 31 g ai/ha): 15
Plant response rating, Field Violet [5, 16]: 10
Plant response rating, Field Violet [5, 17]: 70
Plant response rating, Field Violet [5, 18]: 95
Plant response rating, Field Violet [5, 19]: 85
Galium plant response rating [6, 13]: 100
Plant response rating, Galium [6, 14]: 100
Plant response rating, Galium [6, 15]: 100
Plant response rating (scale of 0 to 100), Galium ([6]; Preemergence, 31 g ai/ha): 0
Plant response rating, Galium [6, 16]: 20
Plant response rating, Galium [6, 17]: 75
Plant response rating, Galium [6, 18]: 85
Plant response rating, Galium [6, 19]: 100
Kochia plant response rating (kochia (Kochia scoparia); [13]): 85
Plant response rating, Kochia (kochia (Kochia scoparia); [14]): 100
Plant response rating, Kochia (kochia (Kochia scoparia); [15]): 100
Plant response rating (scale of 0 to 100), Kochia (kochia (Kochia scoparia); Preemergence, 31 g ai/ha): 0
Plant response rating, Kochia (kochia (Kochia scoparia); [16]): 25
Plant response rating, Kochia (kochia (Kochia scoparia); [17]): 45
Plant response rating, Kochia (kochia (Kochia scoparia); [18]): 60
Plant response rating, Kochia (kochia (Kochia scoparia); [19]): 95
Mustard, Wild plant response rating [7, 13]: 100
Plant response rating, Mustard, Wild [7, 14]: 100
Plant response rating, Mustard, Wild [7, 15]: 100
Plant response rating (scale of 0 to 100), Mustard, Wild ([7]; Preemergence, 31 g ai/ha): 45
Plant response rating, Mustard, Wild [7, 16]: 85
Plant response rating, Mustard, Wild [7, 17]: 85
Plant response rating, Mustard, Wild [7, 18]: 90
Plant response rating, Mustard, Wild [7, 19]: 100
Oilseed Rape plant response rating [8, 13]: 75
Plant response rating, Oilseed Rape [8, 14]: 95
Plant response rating, Oilseed Rape [8, 15]: 100
Plant response rating (scale of 0 to 100), Oilseed Rape ([8]; Preemergence, 31 g ai/ha): 0
Plant response rating, Oilseed Rape [8, 16]: 0
Plant response rating, Oilseed Rape [8, 17]: 55
Plant response rating, Oilseed Rape [8, 18]: 65
Plant response rating, Oilseed Rape [8, 19]: 85
Pigweed plant response rating [9, 13]: 100
Plant response rating, Pigweed [9, 14]: 100
Plant response rating, Pigweed [9, 15]: 100
Plant response rating (scale of 0 to 100), Pigweed ([9]; Preemergence, 31 g ai/ha): 55
Plant response rating, Pigweed [9, 16]: 75
Plant response rating, Pigweed [9, 17]: 100
Plant response rating, Pigweed [9, 18]: 100
Plant response rating, Pigweed [9, 19]: 100
Radish, Wild plant response rating [10, 13]: 80
Plant response rating, Radish, Wild [10, 14]: 100
Plant response rating, Radish, Wild [10, 15]: 100
Plant response rating (scale of 0 to 100), Radish, Wild ([10]; Preemergence, 31 g ai/ha): 0
Plant response rating, Radish, Wild [10, 16]: 0
Plant response rating, Radish, Wild [10, 17]: 50
Plant response rating, Radish, Wild [10, 18]: 70
Plant response rating, Radish, Wild [10, 19]: 90
Speedwell plant response rating [11, 13]: 60
Plant response rating, Speedwell [11, 14]: 100
Plant response rating, Speedwell [11, 15]: 100
Plant response rating (scale of 0 to 100), Speedwell ([11]; Preemergence, 31 g ai/ha): 95
Plant response rating, Speedwell [11, 16]: 100
Plant response rating, Speedwell [11, 17]: 100
Plant response rating, Speedwell [11, 18]: 100
Plant response rating, Speedwell [11, 19]: 90
Windgrass plant response rating [12, 13]: 40
Plant response rating, Windgrass [12, 14]: 70
Plant response rating, Windgrass [12, 15]: 75
Plant response rating (scale of 0 to 100), Windgrass ([12]; Preemergence, 31 g ai/ha): 0
Plant response rating, Windgrass [12, 16]: 5
Plant response rating, Windgrass [12, 17]: 5
Plant response rating, Windgrass [12, 18]: 65
Plant response rating, Windgrass [12, 19]: 50
